{
  "source": "patent US20080317729A1",
  "about": "“Ammonium Salts and Ammonium Salt/Mineral Salt Clathrate Compounds for Use as Vehicle and Effective Form for Pharmaco-Medical Applications and for Use as Phase Transfer Agents for Chemical Applications” (priority 2004, published 2008)",
  "origin": "cited, not measured here",
  "data": [
    {"smiles": "CCN(CC)CCOC(=O)c1ccc(N)cc1", "note": "[diprocainium carbonate]", "values": [
      {"measurement": "solubility", "result": "moderately dissoluble"}
    ]}
  ]
}
